Data reported in patent US20090325947A1, “NITRATE ESTERS OF PIPERIDINES” (priority 2006, published 2009).

Tested on: phenylephrine-precontracted vessels (thoracic aorta or femoral vein rings)
Assay: in vitro vascular reactivity test: relaxation of phenylephrine-precontracted aorta or vein rings
Settings: at 100 μM; relative to phenylephrine (0.1 μM)-induced contractile tone
Excerpt: The determination of the nitrogen monoxide-releasing properties of a compound, be it by enzymatic or non-enzymatic action, can be carried out by means of in vitro vascular reactivity tests. The in vitro vascular reactivity test measures the ability of the released nitrogen monoxide to relax a pretensioned aorta ring or vein ring which is kept in an organ chamber. […] The thoracic aorta or the femoral vein is isolated from sacrificed and exsanguinated Wistar rats and cut up to give rings 2 mm long. The vascular rings are stored in organ chambers. Changes in the development of tension after the action of compounds are recorded by an isometric signal transmitter, which is connected to a computerized detection system. The computer program analyses time curves, period and size amounts between contractions.

Going from COCCCN1CCOc2ccc(CO[C@H]3CNC[C@@H](OC[C@@H](C)O[N+](=O)[O-])[C@@H]3c3ccc(COCCOC)cc3)cc21 [Example 6] to COCCCN1CCOc2ccc(CO[C@H]3CNC[C@@H](OC[C@@H](COC)O[N+](=O)[O-])[C@@H]3c3ccc(COC[C@@H](C)COC)cc3)cc21 [Example 14], the “relaxation, percentage of the maximal vessel relaxation achieved with sodium nitroprusside (SNP)” value (from here on “relaxation, percentage”) rises from 15% to 25%.

Going from COCCCN1CCOc2ccc(CO[C@H]3CNC[C@@H](OC[C@H](O)CO[N+](=O)[O-])[C@@H]3c3ccc(COC[C@@H](C)COC)cc3)cc21 [Example 8, (S)-1-{(3S,4R,5R)-4-[4-((S)-3-Methoxy-2-methyl-Propoxymethyl)phenyl]-5-[4-(3-methoxypropyl)-3,4-dihydro-2H-benzo[1,4]oxazin-6-ylmethoxy]-piperidin-3-yloxy}-3-nitrooxypropan-2-ol] to COCCCN1CCOc2ccc(CO[C@H]3CNC[C@@H](OC[C@H](COC)O[N+](=O)[O-])[C@@H]3c3ccc(COC[C@@H](C)COC)cc3)cc21 [Example 34, 6-[(3R,4R,5S)-4-[4-((S)-3-Methoxy-2-methylpropoxy-methyl)phenyl]-5-((S)-3-methoxy-2-nitrooxy-propoxy)piperidin-3-yloxymethyl]-4-(3-methoxy-propyl)-3,4-dihydro-2H-benzo[1,4]oxazine], the “relaxation, percentage” value falls from 20% to 8%.

Going from COCCCN1CCOc2ccc(CO[C@H]3CNC[C@@H](O[N+](=O)[O-])[C@@H]3c3ccc(COC[C@@H](C)COC)cc3)cc21 [Example 9, 6-{(3R,4R,5S)-4-[4-((S)-3-Methoxy-2-methylpropoxy-methyl)phenyl]-5-nitrooxypiperidin-3-yloxy-methyl}-4-(3-methoxypropyl)-3,4-dihydro-2H-benzo-[1,4]oxazine] to COCCCN1CCOc2ccc(CO[C@H]3CNC[C@@H](CO[N+](=O)[O-])[C@@H]3c3ccc(COC[C@@H](C)COC)cc3)cc21 [Example 21, 6-{(3R,4R,5S)-4-[4-((S)-3-Methoxy-2-methyl-propoxymethyl)phenyl]-5-nitro-oxymethylpiperidin-3-yloxymethyl}-4-(3-methoxypropyl)-3,4-dihydro-2H-benzo[1,4]oxazine], the “relaxation, percentage” value rises from 8% to 20%.
